Experimental data: patent US20090246212A1, “DEVELOPMENT OF METHOD FOR SCREENING FOR DRUG CAPABLE OF IMPROVING PRODUCTION OF REGULATORY T CELLS AND METHOD FOR PRODUCING REGULATORY T CELLS USING IMMUNOSUPPRESSIVE MACROLIDE ANTIBIOTIC” (KYOTO UNIVERSITY, priority 2005, published 2009)

Assays:
[1] = system: experimental allergic encephalomyelitis model; conditions: model of multiple sclerosis; cited from earlier work
[2] = system: CD45RA^+CD25^−CD4^+ T cell line; test: Mixed lymphocyte reaction with trans-well, rapamycin-cultured CD45RA^+CD25^−CD4^+ T cell line; assay type: cell-based, human; conditions: rapamycin 20 nM from day 40
Experimental: (§1) CD45RA^+CD25^+CD4^+ T cells or CD45RA^+CD25^−CD4^+ T cells in human peripheral blood separated in the same manner as Example 1 (5×10̂4 cells/well) were stimulated with anti-human CD3 and CD28 conjugate beads in a ratio of 4 beads per cell in a 96-well round-bottomed culture plate containing 200 μl per well of a proliferation medium (AlyS505N (produced by Cell Science & Technology Institute) supplemented with 2% human AB serum) in the presence of human IL-2 (1000 U/ml, produced by Cell Science & Technology Institute). Rapamycin (20 nM, produced by Sigma) was added to the medium 40 days after the start of cultivation. Every 3 to 4 days, half of the medium was replaced with a fresh proliferation medium containing IL-2. If necessary, the cells were separated and repeatedly re-stimulated with anti-CD3/CD28 antibody conjugate beads every 10 to 14 days. Fifty days after the start of cultivation, the cells were collected and used for functional assay.
(§2) Total CD4^+ T cells in peripheral blood were isolated in the same manner as Example 1. […] The culture product was collected, and [3H] thymidine uptake was measured using 1450 Microbeta TriLux (Wallac).

[3] = system: CD45RA^+CD25^+CD4^+ T cell line; test: Mixed lymphocyte reaction with trans-well, rapamycin-cultured CD45RA^+CD25^+CD4^+ T cell line; assay type: cell-based, human; conditions: rapamycin 20 nM from day 40
Experimental: as §1, §2

[4] = system: CD45RA^+CD25^+CD4^+ T cells; test: Expansion culture of CD45RA^+CD25^+CD4^+ T cells with anti-CD3/CD28 beads and IL-2, rapamycin added; assay type: cell-based, human; conditions: for increase of cell number in the culture product: 50 days after start
Experimental: (§3) Venous blood was obtained from healthy volunteers (human). Peripheral blood mononuclear cell (PBMC) was isolated by Ficoll-Hypaque (Amersham Biosciences-Uppsala) density gradient centrifugation. The cells were stained with allophycocyanin (APC)-conjugated anti-CD4 monoclonal antibody (mAb), phycoerythrin (PE)-conjugated anti-CD25 mAb, and fluorescein isothiocyanate (FITC)-conjugated anti-CD45RA mAb for 30 min at 4° C. in the dark, after which the following six different cell fractions were isolated using a BD FACSAria cell sorter (Becton Dickinson)(see FIG. 1A).
(§4) CD45RA^+CD25^+CD4^+ T cells or CD45RA^+CD25^−CD4^+ T cells (5×10̂4 cells/well) separated as described above were stimulated with anti-human CD3 and CD28 conjugate beads in a ratio of 4 beads per cell in a 96-well round-bottomed culture plate containing 200 μl per well of a proliferation medium (AlyS505N (produced by Cell Science & Technology Institute) supplemented with 2% human AB serum) in the presence of human IL-2 (1000 U/ml, produced by Cell Science & Technology Institute). Rapamycin (20 nM, produced by Sigma) was added as appropriate. Every 3 to 4 days, half of the medium was replaced with a fresh proliferation medium containing IL-2. If necessary, the cells were separated and repeatedly re-stimulated with anti-CD3/CD28 antibody conjugated beads every 10 to 14 days. Two days before functional assay, the anti-CD3/CD28 antibody conjugated beads were removed magnetically, and the cells were cultured along with 100 U/ml IL-2 in the absence of rapamycin. After 3 times of washing, the cells were used for functional assay.

[5] = system: mouse CD4^+ T; conditions: cited from earlier work
[6] = system: IgE-like antibody; conditions: in vivo; cited from earlier work
[7] = system: Candida albicans; conditions: both in vitro and in vivo, particularly against Candida albicans; cited from earlier work
[8] = system: CD45RA^+CD25^−CD4^+ T cell line; test: Suppression assay ([^3H] thymidine uptake) of the rapamycin-cultured CD45RA^+CD25^−CD4^+ T cell line; assay type: cell-based, human; conditions: then 2 days without rapamycin
Experimental: as §4, with “Two days before functional assay, the anti-CD3/CD28 antibody conjugated beads were removed magnetically, and the cells were cultured along with 100 U/ml IL-2 in the absence of rapamycin. After 3 times of washing, the cells were used for functional assay.” left out
(§5) The indicated number of CD45RA^+CD25^+CD4^+ T cells just isolated from human peripheral blood, expanded CD45RA^+CD25^+CD4^+ T cell lines, or expanded CD45RA^+CD25^−CD4^+ T cell line, alone or along with self responder CD4^+ T cells (5×10̂4 cells/well), were stimulated with radiated (40 Gy) allogenic PBMC (1×10̂5 cells/well) in a round-bottomed 96-well microplate containing a proliferation medium. […] Subsequently, the cells were recovered, and [^3H] thymidine uptake was measured using 1450 Microbeta TriLux (Wallac).

[9] = system: adjuvant-induced arthritis model; conditions: model of rheumatoid arthritis; cited from earlier work
[10] = system: CD45RA^+CD25^−CD4^+ T cells; test: Expansion culture of CD45RA^+CD25^−CD4^+ T cells with anti-CD3/CD28 beads and IL-2, rapamycin added; assay type: cell-based, human
Experimental: as §3, §4

[11] = system: CD45RA^+CD25^+CD4^+ T cell line; test: Suppression assay ([^3H] thymidine uptake) of the rapamycin-cultured CD45RA^+CD25^+CD4^+ T cell line; assay type: cell-based, human; conditions: then 2 days without rapamycin
Experimental: as §4, with “Two days before functional assay, the anti-CD3/CD28 antibody conjugated beads were removed magnetically, and the cells were cultured along with 100 U/ml IL-2 in the absence of rapamycin. After 3 times of washing, the cells were used for functional assay.” left out
as §5

[12] = conditions that allow cell contact
[13] = contact blocked with the trans-well
[14] = stimulated in the presence of rapamycin

CO[C@H]1C[C@@H]2CC[C@@H](C)[C@@](O)(O2)C(=O)C(=O)N2CCCC[C@H]2C(=O)O[C@H]([C@H](C)C[C@@H]2CC[C@@H](O)[C@H](OC)C2)CC(=O)[C@H](C)/C=C(\C)[C@@H](O)[C@@H](OC)C(=O)[C@H](C)C[C@H](C)/C=C/C=C/C=C/1C [rapamycin]
efficacy in experimental allergic encephalomyelitis model [1]: effective | T cell line's effect on proliferation of total CD4^+ T cells [2, 12]: strongly suppressed | suppression of the proliferation of total CD4^+ T cells by the T cell line [2, 13]: continued to suppress | T cell line's effect on proliferation of total CD4^+ T cells [3, 12]: strongly suppressed | suppression of the proliferation of total CD4^+ T cells by the T cell line [3, 13]: interrupted | increase of cell number in the culture product ([4]; rapamycin 20 nM added 7 days after start): about 60 times | proliferation of the CD45RA^+CD25^+CD4^+ T cell line ([4]; rapamycin 20 nM added 7 days or 39 days after start of cultivation): suppressed after the time of addition | increase of cell number in the culture product ([4]; rapamycin 20 nM added 39 days after start): about 700 times | proliferation of CD45RA^+CD25^+CD4^+ T cells ([4]; rapamycin 20 nM added from the start of cultivation): suppressed | increase of cell number in the culture product ([4]; rapamycin 20 nM added from the start of cultivation (day 0)): about 20 times | CD4^+CD25^+FOXP3^+ regulatory T cells ([5]; mouse CD4^+ T stimulated with an antigen in the presence of rapamycin): expanded selectively | expression of FOXP3 in CD4^+CD25^− T cells [5, 14]: did not enhance | proliferation of isolated CD4^+CD25^+ T cells [5, 14]: proliferated vigorously | suppressive function of the T cell population produced from CD4^+CD25^+ T cells [5, 14]: having suppressive function | suppressive function of the T cell population produced from CD4^+CD25^− T cells [5, 14]: without suppressive function | formation of IgE-like antibody [6]: effectively inhibited | antifungal activity [7]: possess antifungal activity | T cell line's effect on proliferation of CD4^+ T cells in response to alloantigen-presenting cells ([8]; rapamycin added day 19, about 35 days after start): strongly suppressed | T cell line's effect on proliferation of CD4^+ T cells in response to alloantigen-presenting cells ([8]; rapamycin from day 0, about 35 days culture): strongly suppressed | efficacy in adjuvant-induced arthritis model [9]: effective | influence on the proliferation of the T cell line ([10]; rapamycin 20 nM added 19 days after start of cultivation): almost no influence | proliferation of CD45RA^+CD25^−CD4^+ T cells ([10]; rapamycin 20 nM from the start of cultivation, compared with cultivation in the absence of rapamycin): slightly suppressed | increase of cell number in the culture product ([10]; rapamycin 20 nM from the start of cultivation, about 35 days after start): about 700 times | T cell line's effect on proliferation of CD4^+ T cells in response to alloantigen-presenting cells ([11]; rapamycin added day 7 or day 39, collected 50 days after start): strongly suppressed | T cell line's effect on proliferation of CD4^+ T cells in response to alloantigen-presenting cells ([11]; rapamycin from day 0, 50 days culture): strongly suppressed
